Measured values published in patent US10272078B2, “Crystalline forms of a prolyl hydroxylase inhibitor” (FibroGen, Inc., priority 2012, dated 2019).

Tests used:
[1] = Solid form stability on storage (XRPD); format: physicochemical; settings: for XRPD pattern after storage: 40° C./75% RH
Excerpt: X-Ray Powder Diffraction patterns were collected on a Bruker AXS C2 GADDS diffractometer using Cu Kα radiation (40 kV, 40 mA), automated XYZ stage, laser video microscope for auto-sample positioning and a HiStar 2-dimensional area detector. X-ray optics consists of a single Gobel multilayer mirror coupled with a pinhole collimator of 0.3 mm. […] The beam divergence, i.e. the effective size of the X-ray beam on the sample, was approximately 4 mm. […] Typically the sample would be exposed to the X-ray beam for 120 seconds. The software used for data collection was GADDS for WNT 4.1.16 and the data were analyzed and presented using Diffrac Plus EVA v11.0.0.2 or v13.0.0.2. Alternatively, X-Ray Powder Diffraction patterns were collected on a Bruker D8 diffractometer using Cu Kα radiation (40 kV, 40 mA), θ-2θ goniometer, and divergence of V4 and receiving slits, a Ge monochromator and a Lynxeye detector. […] The software used for data collection was Diffrac Plus XRD Commander v2.5.0 and the data were analyzed and presented using Diffrac Plus EVA v11.0.0.2 or v13.0.0.2. Samples were run under ambient conditions as flat plate specimens using powder as received. The sample was gently packed into a cavity cut into polished, zero-background (510) silicon wafer. The sample was rotated in its own plane during analysis. The details of the data collection are: • Angular range: 2 to 42° 2θ • Step size: 0.05° 2θ • Collection time: 0.5 s/step • Analysis duration: 7 minutes Differential Scanning Calorimetry (DSC)

Moisture sorption = format: physicochemical; settings: between 5% to 95% relative humidity; lost on desorption

[(4-hydroxy-1-methyl-7-phenoxy-isoquinoline-3-carbonyl)-amino]-acetic acid hemihydrate [Compound A Form B]
change of crystalline pattern on storage ([1]; 25° C./96% RH for twelve days): reverting to Form A | change of crystalline form on storage (high resolution XRPD) ([1]; ambient temperature, a full month (32 days)): almost completely reverted to anhydrous Form A

Cc1nc(C(=O)NCC(=O)O)c(O)c2ccc(Oc3ccccc3)cc12 [Compound A Form A, [(4-hydroxy-1-methyl-7-phenoxy-isoquinoline-3-carbonyl)-amino]-acetic acid]
moisture sorption weight gain (Moisture sorption): approximately 0.2%

Cc1nc(C(=O)NCC(=O)O)c(O)c2ccc(Oc3ccccc3)cc12.NCCO [Compound A ethanolamine salt, [(4-hydroxy-1-methyl-7-phenoxy-isoquinoline-3-carbonyl)-amino]-acetic acid ethanolamine salt]
XRPD pattern after storage [1]: Pattern 3 was observed

[(4-hydroxy-1-methyl-7-phenoxy-isoquinoline-3-carbonyl)-amino]-acetic acid diethanolamine salt [Compound A diethanolamine salt]
XRPD pattern after storage [1]: Pattern 2 was observed
